In ChEMBL document CHEMBL4190308, “Drifting of heme-coordinating group in imidazolylmethylxanthones leading to improved selective inhibition of CYP11B1” (Eur J Med Chem, 2017):

Experiments:
[1] = target: T1, Cytochrome P450 11B1, mitochondrial (Homo sapiens, UniProt P15538); assay: Inhibition of human CYP11B1 expressed in hamster V79MZh cells using [1,2-3H]-11-deoxycorticosterone as substrate after 6 hrs by HPTLC analysis; assay type: cell-based
T1 sequence (P15538 whole entry): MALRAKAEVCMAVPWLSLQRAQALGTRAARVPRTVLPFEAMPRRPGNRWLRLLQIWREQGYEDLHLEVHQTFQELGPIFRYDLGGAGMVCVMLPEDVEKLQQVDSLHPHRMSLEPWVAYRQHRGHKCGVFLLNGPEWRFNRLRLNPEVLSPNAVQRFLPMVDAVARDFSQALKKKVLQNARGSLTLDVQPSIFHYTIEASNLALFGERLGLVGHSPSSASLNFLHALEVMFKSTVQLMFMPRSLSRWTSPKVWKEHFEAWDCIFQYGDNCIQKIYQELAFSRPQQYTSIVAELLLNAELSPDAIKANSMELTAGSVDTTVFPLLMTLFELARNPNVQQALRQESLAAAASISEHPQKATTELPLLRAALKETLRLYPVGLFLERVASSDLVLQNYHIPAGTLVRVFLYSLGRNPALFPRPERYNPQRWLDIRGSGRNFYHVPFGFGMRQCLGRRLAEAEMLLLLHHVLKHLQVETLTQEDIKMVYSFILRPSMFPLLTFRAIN

[2] = target: T2, Cytochrome P450 11B2, mitochondrial (Homo sapiens, UniProt P19099); assay: Inhibition of human CYP11B2 expressed in hamster V79MZh cells using [1,2-3H]-11-deoxycorticosterone as substrate after 30 mins by HPTLC analysis; assay type: cell-based
T2 sequence (P19099 whole entry): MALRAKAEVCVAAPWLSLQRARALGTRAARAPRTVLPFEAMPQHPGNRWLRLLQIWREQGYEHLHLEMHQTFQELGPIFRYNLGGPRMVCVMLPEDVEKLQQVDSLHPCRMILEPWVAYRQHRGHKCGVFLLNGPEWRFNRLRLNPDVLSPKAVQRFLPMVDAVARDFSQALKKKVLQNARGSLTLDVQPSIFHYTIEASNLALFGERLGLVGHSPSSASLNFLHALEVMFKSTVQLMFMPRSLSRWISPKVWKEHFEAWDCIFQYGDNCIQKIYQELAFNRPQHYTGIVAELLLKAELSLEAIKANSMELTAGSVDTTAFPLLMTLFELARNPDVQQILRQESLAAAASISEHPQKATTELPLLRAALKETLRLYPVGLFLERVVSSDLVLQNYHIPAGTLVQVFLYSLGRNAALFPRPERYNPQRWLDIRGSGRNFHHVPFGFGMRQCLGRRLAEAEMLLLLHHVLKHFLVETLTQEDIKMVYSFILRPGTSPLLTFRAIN

[3] = species on record: Homo sapiens; assay: Selectivity index, ratio of IC50 for human CYP11B2 to IC50 for human CYP11B1

## O=c1c2ccc(Cn3ccnc3)cc2oc2cc(OCC3CC3)ccc12
[1]
  IC50: 0.0047 µM
[2]
  IC50: 0.0223 µM
[3]
  Ratio IC50: 4.7

## O=c1c2ccc(Cl)cc2oc2cc(Cn3ccnc3)ccc12
[1]
  IC50: 0.0066 µM
[2]
  IC50: 0.0953 µM
[3]
  Ratio IC50: 14.4

## O=c1c2ccccc2oc2ccc(Cn3ccnc3)cc12
[1]
  IC50: 0.463 µM
[2]
  IC50: 1.14 µM
[3]
  Ratio IC50: 2.5

## O=c1c2ccc(Cn3ccnc3)cc2oc2cc(Oc3ccccc3)ccc12
[1]
  IC50: 0.0065 µM
[2]
  IC50: 0.0262 µM
[3]
  Ratio IC50: 4

## O=c1c2ccc(F)cc2oc2cc(Cn3ccnc3)ccc12
[1]
  IC50: 0.0123 µM
[2]
  IC50: 0.082 µM
[3]
  Ratio IC50: 6.7

## O=c1c2ccc(Br)cc2oc2cc(Cn3ccnc3)ccc12
[1]
  IC50: 0.0114 µM
[2]
  IC50: 0.0444 µM
[3]
  Ratio IC50: 3.9

## O=c1c2ccccc2oc2c(Cn3ccnc3)cccc12
[1]
  IC50: 0.0151 µM
[2]
  IC50: 0.0437 µM
[3]
  Ratio IC50: 2.9

## O=c1c2ccccc2oc2cccc(Cn3ccnc3)c12
[1]
  IC50: 0.0991 µM
[2]
  IC50: 0.114 µM
[3]
  Ratio IC50: 1.2

## COc1ccc2c(=O)c3ccc(Cn4ccnc4)cc3oc2c1
[1]
  IC50: 0.0154 µM
[2]
  IC50: 0.0454 µM
[3]
  Ratio IC50: 2.9

## O=c1c2ccc(Cn3ccnc3)cc2oc2cc([N+](=O)[O-])ccc12
[1]
  IC50: 0.0192 µM
[2]
  IC50: 0.135 µM
[3]
  Ratio IC50: 7

## O=c1c2ccc(Cn3ccnc3)cc2oc2cc(OC3CCCC3)ccc12
[1]
  IC50: 0.0058 µM
[2]
  IC50: 0.0203 µM
[3]
  Ratio IC50: 3.5

## O=c1c2ccccc2oc2cc(Cn3ccnc3)ccc12
[1]
  IC50: 0.0708 µM
[2]
  IC50: 0.344 µM
[3]
  Ratio IC50: 4.8

## CC(C)Oc1ccc2c(=O)c3ccc(Cn4ccnc4)cc3oc2c1
[1]
  IC50: 0.0041 µM
[2]
  IC50: 0.0166 µM
[3]
  Ratio IC50: 4
